In patent publication US20220170859A1, “PARTICLE LABELING REAGENT, PARTICLE DYEING METHOD, AND MICROSCOPIC SYSTEM” (SONY GROUP CORPORATION, priority 2019, published 2022):

Test system: Jurkat cells
Settings: Jurkat cells dyed with 50 μM reagent in PBS; UV 365 nm 10 minutes vs no UV
Procedure: 1 mL of Jurkat cells 3.0×10^6 cells/PBS (−), the Jurkat cells being human leukemia T cell lines, was prepared in a 1.5 mL Eppendorf tube, and centrifuged at 200×g for five minutes. The supernatant was removed, and 1 mL of a 50 μM MeNPOC-biotin-sulfo-NHS ester.Na/PBS solution was added thereto. The mixture was shielded from light by an aluminum foil, and allowed to stand at room temperature for 20 minutes. The mixture was centrifuged at 200×g for five minutes, and the supernatant was removed. The residue was resuspended in 1 mL of PBS (−) and centrifuged again at 200×g for five minutes, and the supernatant was removed. PBS (−) was added thereto, and the cell concentration was measured with a cell counter, and then the concentration was adjusted to 1.5×10^5 cells/mL. The cells were added dropwise at 0.1 mL/well to a COC film bottom 96 well plate that had been soaked with 1% BSA overnight, and centrifuged at 120×g for one minute to precipitate the cells on a well bottom surface. Subsequently, the sample was irradiated with UV light from the well bottom surface side for 10 minutes using a UV-LED (LED 365-SPT, Optocode, λp=365 nm, about 17 mW/cm^2). As a comparison, a sample not irradiated with UV light was allowed to stand for 10 minutes. The cell suspension was collected from the wells, and PBS was added thereto to adjust the volume to 0.8 mL. […]

MeNPOC-biotin-sulfo-NHS ester sodium salt
fluorescence intensity (adsorption of Alexa Fluor 488 labeled streptavidin): fluorescence intensity changed depending on presence or absence of UV irradiation
